Data from US5512576A, “2-substituted 1,2,5,-thiadiazolidin-3-one 1,1-dioxides and compositions and method of use thereof” (Sterling Winthrop Inc., priority 1994, dated 1996).

Target: T1, human leukocyte elastase (Homo sapiens, UniProt P08246)
T1 sequence (P08246 30-267): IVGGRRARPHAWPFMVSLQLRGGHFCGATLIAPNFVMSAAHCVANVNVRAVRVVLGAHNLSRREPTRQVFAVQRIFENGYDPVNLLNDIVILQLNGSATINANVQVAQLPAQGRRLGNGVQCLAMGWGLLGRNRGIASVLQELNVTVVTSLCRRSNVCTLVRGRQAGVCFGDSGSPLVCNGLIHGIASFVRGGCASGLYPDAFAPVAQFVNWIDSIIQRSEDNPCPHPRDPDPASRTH
Assay: human leukocyte elastase (HLE) inhibition, in vitro, substrate MeOSuc-Ala-Ala-Pro-Val-pNA
Assay type: biochemical
Conditions: pH 7.8 at 25° C., absorbance at 410 nm, read-out: Ki, human leukocyte elastase inhibitory activity
Procedure: The test compound (inhibitor) is dissolved in DMSO in a vial to produce an inhibitor stock solution which has a concentration in the range of 200-1000 μM. The inhibitor stock solution is diluted (1:4, 1:16 and 1:64) into assay vials (vials 1, 2 and 3 respectively) containing 2.4 mL of buffer solution (50 mM N- 2-hydroxyethyl!piperazine-N'- 2-ethanesulfonic acid!/NaOH, 500 mM NaCl, pH 7.8 at 25° C.) and DMSO is added so that the total volume in each vial is 3.2 mL. 70 μL, 50 μL, 35 μL and 25 μL of inhibitor from assay vial 1 is placed into the first four wells of a 96-well microtiter plate and each well is made up to 90 μL total volume with the addition of a 25% DMSO/buffer solution. […]
The 96-well microtiter plate is placed into a Microplate Reader #89815A spectrophotometer and 110 BL of the enzyme solution (prepared as follows: a mixture of 20 mL of buffer solution and 20 mg of bovine serum albumen is gently vortexed in a scintillation vial and 5 BL HLE stock solution (1 mg/mL dissolved in deionized water) is added) is added simultaneously to each of the 16 wells. Each of the solutions in the wells is throughly mixed and then the time-dependent absorbance data is collected at an absorbance of 410 nm until the assay is complete. […]
A plot of the absorbance versus time data thus obtained affords progress curves the final slope of which is equal to the final steady-state velocities (VF). […]

CC(C)CCC1C(=O)N(COc2cc(=O)n3ccccc3n2)S(=O)(=O)N1C (stereo not shown) [Example 1(j), 2-(4-oxo-4-H-pyrido 1,2-a!pyrimidin-2-yl-oxymethyl)-4-(3-methylbutyl)-5-methyl-1,2,5-thiadiazolidin-3-one 1,1-dioxide]
Ki: 0.79 nM
